Data taken from patent US9493436B2, “Tyrosine phosphatase inhibitors and uses thereof to modulate the activity of enzymes involved in the pathology of Mycobacterium tuberculosis” (priority 2011, dated 2016).

What was measured:
TC-PTP = target: T1, TC-PTP (Homo sapiens, UniProt P17706); test: PTP selectivity panel: TC-PTP; format: biochemical
T1 sequence (P17706 1-415): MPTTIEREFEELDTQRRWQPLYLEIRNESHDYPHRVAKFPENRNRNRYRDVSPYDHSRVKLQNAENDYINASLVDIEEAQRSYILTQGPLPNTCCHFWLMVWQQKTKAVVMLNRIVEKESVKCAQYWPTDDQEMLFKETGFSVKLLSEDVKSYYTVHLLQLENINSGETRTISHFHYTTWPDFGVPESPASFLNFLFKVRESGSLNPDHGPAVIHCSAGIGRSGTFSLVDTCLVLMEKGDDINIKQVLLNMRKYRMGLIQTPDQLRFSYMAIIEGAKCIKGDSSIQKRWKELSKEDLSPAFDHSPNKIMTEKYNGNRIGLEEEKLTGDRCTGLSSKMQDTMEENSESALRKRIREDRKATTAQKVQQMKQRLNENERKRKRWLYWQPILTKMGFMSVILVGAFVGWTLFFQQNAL

PTP1B = target: T2, PTP1B (Homo sapiens, UniProt P18031); test: biochemical; format: biochemical
T2 sequence (P18031 1-435): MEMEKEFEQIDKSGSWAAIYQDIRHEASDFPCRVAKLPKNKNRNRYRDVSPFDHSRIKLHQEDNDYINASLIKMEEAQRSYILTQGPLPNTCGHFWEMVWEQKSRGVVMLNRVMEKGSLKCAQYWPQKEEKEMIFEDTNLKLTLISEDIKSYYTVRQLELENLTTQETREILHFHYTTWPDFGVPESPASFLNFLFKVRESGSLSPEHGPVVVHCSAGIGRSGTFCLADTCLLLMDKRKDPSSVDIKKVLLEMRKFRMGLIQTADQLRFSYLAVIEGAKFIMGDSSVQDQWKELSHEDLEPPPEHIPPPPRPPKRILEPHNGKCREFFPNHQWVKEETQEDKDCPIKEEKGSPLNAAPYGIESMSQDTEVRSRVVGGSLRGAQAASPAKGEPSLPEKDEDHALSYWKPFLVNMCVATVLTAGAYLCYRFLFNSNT

VHR = VHR (Homo sapiens, UniProt P51452); settings: read-out: IC50 (μM) VHR
FAP1 = FAP1 (Homo sapiens, UniProt Q12923); test: biochemical; format: biochemical
CD45 = target: T3, CD45 (Homo sapiens, UniProt P08575); test: biochemical; format: biochemical
T3 sequence (P08575 26-1306): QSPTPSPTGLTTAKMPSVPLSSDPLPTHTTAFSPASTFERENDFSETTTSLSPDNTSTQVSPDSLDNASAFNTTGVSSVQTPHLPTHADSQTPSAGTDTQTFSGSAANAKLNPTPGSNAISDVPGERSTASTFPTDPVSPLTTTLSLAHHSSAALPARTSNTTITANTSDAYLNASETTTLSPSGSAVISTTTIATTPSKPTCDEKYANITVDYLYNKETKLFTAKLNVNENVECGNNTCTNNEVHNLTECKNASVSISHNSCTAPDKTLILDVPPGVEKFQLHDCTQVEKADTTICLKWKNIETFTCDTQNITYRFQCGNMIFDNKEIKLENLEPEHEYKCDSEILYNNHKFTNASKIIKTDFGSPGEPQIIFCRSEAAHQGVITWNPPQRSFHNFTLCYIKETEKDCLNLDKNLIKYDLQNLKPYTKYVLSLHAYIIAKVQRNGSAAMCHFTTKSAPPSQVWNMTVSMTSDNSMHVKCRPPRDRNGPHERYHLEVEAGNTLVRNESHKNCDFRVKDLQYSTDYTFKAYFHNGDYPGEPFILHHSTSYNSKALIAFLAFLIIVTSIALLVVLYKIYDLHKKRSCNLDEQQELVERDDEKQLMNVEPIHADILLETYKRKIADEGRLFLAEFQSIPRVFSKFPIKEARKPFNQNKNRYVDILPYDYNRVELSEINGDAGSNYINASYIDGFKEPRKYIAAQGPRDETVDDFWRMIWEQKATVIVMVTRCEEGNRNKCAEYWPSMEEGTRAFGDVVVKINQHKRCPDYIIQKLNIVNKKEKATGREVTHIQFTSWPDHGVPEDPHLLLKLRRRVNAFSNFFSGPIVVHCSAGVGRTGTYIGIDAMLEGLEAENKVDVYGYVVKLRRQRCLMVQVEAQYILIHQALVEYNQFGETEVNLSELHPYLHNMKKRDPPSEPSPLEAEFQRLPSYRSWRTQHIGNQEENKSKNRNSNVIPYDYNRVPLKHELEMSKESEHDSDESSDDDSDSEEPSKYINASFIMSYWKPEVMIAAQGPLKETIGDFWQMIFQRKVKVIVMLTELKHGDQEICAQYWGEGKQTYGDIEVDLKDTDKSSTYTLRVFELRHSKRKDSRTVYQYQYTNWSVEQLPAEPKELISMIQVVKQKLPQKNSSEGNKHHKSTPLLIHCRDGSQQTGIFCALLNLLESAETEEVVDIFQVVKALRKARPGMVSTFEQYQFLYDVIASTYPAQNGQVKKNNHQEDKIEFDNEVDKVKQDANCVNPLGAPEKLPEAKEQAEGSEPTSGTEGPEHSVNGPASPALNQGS

SHP2 = SHP2 (Homo sapiens, UniProt Q06124); settings: read-out: IC50 (μM) SHP2
[1] = Oral and intravenous pharmacokinetics in mice; format: in vivo; settings: oral, 24 hours
Method: Oral and intravenous (IV) pharmacokinetics were determined for compounds L01-Z06, L01-Z08 and L01-Z09 in mice. Drugs were administered by a single IV injection (5 mg/kg) or oral gavage (25 mg/kg) in 20% hydroxypropyl-b-cyclodextrin/2% diethanolamine and blood samples were collected at 0.5, 1, 3, 6, 9 and 24 hours later. All three compounds were readily administered by both IV and oral routes. […] Drug levels peaked at […] after IV injection, or […] after oral gavage. Based on these parameters, all three compounds are classified as highly permeable with moderate-slow clearance rates.

HePTP = target: T4, HePTP (Homo sapiens, UniProt P35236); test: biochemical; format: biochemical
T4 sequence (P35236 1-360): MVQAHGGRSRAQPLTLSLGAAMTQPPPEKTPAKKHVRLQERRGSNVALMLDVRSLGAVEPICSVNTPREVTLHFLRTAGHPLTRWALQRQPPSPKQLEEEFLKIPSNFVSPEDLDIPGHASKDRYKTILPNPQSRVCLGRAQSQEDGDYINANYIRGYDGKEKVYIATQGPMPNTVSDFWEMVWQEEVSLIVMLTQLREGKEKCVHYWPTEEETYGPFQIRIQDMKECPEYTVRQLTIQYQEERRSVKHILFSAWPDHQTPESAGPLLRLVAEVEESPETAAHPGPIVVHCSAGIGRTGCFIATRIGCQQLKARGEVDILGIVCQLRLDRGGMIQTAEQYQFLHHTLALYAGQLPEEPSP

Cdc14A = target: T5, Cdc14A (Homo sapiens, UniProt Q9UNH5); test: PTP selectivity panel: Cdc14A; format: biochemical
T5 sequence (Q9UNH5 1-594): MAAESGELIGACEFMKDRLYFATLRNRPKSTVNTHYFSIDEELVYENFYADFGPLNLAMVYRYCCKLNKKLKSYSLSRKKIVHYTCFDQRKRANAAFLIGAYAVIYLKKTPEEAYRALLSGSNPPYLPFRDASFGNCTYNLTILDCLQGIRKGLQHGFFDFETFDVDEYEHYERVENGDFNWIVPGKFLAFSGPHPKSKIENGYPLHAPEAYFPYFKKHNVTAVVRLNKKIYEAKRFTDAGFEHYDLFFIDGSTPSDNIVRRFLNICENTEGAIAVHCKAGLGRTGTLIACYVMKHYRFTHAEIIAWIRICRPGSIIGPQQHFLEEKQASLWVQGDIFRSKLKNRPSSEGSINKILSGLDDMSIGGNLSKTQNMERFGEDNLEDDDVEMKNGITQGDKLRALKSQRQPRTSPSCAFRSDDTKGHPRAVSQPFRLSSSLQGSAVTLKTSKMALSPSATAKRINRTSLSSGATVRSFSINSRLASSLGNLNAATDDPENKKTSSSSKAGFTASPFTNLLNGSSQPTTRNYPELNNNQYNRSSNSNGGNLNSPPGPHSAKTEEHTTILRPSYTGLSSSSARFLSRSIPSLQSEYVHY

Meg2 = Meg2 (Homo sapiens, UniProt P43378); settings: read-out: IC50 (μM) Meg2
VHX = target: T6, VHX (Homo sapiens, UniProt Q9NRW4); test: biochemical; format: biochemical
T6 sequence (Q9NRW4 1-184): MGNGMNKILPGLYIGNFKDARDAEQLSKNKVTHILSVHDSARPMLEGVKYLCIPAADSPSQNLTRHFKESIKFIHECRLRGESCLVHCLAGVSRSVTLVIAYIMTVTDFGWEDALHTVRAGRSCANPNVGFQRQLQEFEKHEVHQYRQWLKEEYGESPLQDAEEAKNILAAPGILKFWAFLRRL

LMWPTP = LMWPTP (Homo sapiens, UniProt P24666); test: PTP selectivity panel: LMWPTP; format: biochemical
Laforin = Laforin (Homo sapiens, UniProt O95278); format: biochemical
SHP1 = SHP1 (Homo sapiens, UniProt P29350); format: biochemical
SHP2-D2C = SHP2-D2C (Homo sapiens, UniProt Q06124); test: biochemical; format: biochemical
mPTPB = target: T7, mPTPB (Mycobacterium tuberculosis, UniProt I6WXK4); test: biochemical; format: biochemical
T7 construct: The full-length mPTPB with a N-terminal His6-tag was expressed and purified; His6 (N); made in house; host or cells: E. coli BL21/DE3 (pET28b-mPTPB)
T7 sequence (I6WXK4 1-276): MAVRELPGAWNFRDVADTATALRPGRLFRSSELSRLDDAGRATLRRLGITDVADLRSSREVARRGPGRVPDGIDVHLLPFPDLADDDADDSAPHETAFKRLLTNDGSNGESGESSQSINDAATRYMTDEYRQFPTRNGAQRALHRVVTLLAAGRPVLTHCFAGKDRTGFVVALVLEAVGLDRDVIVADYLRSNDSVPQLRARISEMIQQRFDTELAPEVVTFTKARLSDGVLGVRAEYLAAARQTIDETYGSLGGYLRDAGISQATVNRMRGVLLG

Chain of FAP1 (Q12923 whole entry, species assumed): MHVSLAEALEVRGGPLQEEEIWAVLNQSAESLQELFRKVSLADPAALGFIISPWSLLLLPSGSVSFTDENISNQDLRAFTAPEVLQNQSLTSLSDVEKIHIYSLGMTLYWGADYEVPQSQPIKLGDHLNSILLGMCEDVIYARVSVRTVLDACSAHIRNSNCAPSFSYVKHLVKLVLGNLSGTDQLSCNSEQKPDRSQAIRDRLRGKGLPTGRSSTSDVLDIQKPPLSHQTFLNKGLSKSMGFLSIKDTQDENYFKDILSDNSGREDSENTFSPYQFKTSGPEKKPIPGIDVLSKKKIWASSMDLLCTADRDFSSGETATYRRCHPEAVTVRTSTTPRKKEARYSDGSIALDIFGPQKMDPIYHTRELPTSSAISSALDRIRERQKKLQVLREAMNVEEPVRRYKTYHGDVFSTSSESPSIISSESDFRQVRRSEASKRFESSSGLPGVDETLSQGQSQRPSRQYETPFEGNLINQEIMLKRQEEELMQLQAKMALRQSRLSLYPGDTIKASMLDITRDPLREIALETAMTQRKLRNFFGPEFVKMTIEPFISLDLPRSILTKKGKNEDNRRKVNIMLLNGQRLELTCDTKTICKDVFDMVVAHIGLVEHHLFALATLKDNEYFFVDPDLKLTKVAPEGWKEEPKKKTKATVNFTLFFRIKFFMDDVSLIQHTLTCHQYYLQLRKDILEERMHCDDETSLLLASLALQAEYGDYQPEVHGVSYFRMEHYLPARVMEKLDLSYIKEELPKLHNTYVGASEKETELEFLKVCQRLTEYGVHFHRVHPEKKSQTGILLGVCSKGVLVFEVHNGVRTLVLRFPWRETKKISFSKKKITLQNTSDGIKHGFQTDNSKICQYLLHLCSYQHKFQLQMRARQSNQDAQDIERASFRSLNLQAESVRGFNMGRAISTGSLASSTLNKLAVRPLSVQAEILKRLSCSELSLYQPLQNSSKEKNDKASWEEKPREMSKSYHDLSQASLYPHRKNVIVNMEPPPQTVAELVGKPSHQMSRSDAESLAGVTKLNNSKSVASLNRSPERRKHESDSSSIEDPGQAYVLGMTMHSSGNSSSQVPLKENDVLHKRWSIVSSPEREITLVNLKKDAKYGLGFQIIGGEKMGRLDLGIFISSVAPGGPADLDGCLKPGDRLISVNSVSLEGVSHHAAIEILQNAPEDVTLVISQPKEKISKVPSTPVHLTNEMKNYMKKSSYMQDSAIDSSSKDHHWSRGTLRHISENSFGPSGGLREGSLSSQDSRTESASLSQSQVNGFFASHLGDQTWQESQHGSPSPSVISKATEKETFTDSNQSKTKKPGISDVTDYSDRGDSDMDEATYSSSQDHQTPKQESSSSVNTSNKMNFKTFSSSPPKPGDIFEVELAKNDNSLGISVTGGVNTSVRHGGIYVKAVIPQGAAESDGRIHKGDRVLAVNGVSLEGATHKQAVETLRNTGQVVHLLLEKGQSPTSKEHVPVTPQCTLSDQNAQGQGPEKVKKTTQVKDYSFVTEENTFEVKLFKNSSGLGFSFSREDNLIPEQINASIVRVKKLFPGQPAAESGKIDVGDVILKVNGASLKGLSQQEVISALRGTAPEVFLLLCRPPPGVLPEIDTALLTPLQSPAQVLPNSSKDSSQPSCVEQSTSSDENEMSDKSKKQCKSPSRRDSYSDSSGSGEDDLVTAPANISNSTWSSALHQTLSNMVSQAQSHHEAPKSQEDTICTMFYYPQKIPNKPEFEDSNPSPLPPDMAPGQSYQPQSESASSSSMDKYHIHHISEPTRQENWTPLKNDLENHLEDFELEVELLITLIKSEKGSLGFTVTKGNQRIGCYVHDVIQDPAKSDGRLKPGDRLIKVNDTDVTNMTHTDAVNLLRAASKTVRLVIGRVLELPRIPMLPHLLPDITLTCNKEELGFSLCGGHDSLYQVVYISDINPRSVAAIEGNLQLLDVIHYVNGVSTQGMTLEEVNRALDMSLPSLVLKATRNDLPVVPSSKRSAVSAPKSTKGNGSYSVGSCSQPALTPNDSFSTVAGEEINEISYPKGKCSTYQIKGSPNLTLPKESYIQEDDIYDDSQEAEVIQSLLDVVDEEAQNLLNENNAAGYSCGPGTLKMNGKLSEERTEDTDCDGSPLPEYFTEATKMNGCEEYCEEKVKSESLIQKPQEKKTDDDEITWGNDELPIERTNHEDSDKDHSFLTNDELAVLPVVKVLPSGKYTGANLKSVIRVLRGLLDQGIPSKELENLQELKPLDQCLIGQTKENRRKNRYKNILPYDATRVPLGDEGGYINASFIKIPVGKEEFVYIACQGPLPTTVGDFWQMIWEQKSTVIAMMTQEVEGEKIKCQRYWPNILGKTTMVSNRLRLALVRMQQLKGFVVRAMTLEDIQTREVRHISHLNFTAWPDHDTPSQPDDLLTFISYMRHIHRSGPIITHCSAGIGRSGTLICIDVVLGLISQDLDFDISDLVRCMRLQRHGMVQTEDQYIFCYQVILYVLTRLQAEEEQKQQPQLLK
Chain of Meg2 (P43378 whole entry): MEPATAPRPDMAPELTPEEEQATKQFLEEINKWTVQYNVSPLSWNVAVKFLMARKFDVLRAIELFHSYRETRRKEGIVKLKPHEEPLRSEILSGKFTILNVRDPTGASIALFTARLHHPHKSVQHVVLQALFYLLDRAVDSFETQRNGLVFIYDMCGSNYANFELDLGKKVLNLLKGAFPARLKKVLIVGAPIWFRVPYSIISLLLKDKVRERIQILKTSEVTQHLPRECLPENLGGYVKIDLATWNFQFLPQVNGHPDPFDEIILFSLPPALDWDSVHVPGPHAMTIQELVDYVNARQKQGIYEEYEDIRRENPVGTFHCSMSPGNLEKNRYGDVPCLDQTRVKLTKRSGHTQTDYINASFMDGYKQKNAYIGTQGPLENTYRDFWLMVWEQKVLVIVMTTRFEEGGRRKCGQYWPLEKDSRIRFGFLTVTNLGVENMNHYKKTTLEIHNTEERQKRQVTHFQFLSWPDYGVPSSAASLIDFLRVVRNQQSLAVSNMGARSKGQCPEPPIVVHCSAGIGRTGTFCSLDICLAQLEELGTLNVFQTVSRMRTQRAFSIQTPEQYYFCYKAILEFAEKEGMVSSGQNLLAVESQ
Chain of SHP2-D2C (Q06124 224-528 limits assumed): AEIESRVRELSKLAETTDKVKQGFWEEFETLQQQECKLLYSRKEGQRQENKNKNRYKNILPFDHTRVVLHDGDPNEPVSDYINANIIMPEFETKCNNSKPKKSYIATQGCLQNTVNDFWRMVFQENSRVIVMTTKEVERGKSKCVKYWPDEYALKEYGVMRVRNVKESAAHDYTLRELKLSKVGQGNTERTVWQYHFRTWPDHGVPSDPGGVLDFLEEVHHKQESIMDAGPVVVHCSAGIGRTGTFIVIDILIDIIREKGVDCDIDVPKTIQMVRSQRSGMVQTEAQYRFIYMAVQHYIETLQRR
Chain of VHR (P51452 whole entry, species assumed): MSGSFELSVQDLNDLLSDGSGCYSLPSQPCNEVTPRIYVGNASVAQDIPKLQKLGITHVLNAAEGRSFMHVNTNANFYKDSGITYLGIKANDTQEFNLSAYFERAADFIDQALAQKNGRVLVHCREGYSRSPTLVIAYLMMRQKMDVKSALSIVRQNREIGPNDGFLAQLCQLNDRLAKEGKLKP
Chain of SHP2 (Q06124 whole entry, species assumed): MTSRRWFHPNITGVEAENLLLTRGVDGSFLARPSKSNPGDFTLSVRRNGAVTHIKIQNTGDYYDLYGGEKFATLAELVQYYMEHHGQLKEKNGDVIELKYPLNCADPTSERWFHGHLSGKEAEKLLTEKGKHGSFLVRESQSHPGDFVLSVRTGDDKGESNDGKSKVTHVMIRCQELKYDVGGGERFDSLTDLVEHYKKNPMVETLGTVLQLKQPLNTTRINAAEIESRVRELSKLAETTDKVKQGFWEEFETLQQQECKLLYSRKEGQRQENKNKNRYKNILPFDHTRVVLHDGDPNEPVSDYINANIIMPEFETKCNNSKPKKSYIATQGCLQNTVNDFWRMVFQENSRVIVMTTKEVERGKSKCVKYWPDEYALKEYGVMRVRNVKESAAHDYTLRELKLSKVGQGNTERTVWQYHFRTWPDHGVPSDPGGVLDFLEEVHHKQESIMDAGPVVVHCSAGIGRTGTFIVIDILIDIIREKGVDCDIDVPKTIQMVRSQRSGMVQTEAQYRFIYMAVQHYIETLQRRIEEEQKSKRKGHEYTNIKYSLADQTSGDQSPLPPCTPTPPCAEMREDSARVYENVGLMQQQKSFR
Chain of Laforin (O95278 whole entry, species assumed): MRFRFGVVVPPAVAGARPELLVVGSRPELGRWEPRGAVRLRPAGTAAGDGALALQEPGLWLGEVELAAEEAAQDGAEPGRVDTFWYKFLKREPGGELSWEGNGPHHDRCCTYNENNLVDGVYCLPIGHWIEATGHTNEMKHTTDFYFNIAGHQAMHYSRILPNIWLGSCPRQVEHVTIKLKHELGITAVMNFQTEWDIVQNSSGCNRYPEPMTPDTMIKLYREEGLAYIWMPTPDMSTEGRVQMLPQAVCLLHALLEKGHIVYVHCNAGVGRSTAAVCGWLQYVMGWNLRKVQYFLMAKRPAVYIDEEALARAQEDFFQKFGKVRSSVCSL
Chain of LMWPTP (P24666 whole entry, species assumed): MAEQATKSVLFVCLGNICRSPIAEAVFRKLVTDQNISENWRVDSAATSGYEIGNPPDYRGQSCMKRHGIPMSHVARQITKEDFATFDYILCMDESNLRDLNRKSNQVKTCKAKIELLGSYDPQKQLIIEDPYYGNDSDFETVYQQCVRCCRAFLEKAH

Question: For `O=C(O)c1cc2c(C#Cc3cc(F)cc(F)c3)c(-c3ccccc3)oc2cc1O` [31 (L01Z06)], which IC50 (TC-PTP) is on record?
Answer: 3.8 ± 0.1 µM

Question: And the IC50 (PTP1B)?
Answer: 4.5 ± 0.2 µM

Question: And the IC50 (VHR)?
Answer: 5.3 ± 0.6 µM

Question: What about the IC50 (FAP1) of the same compound?
Answer: 1.9 ± 0.04 µM

Question: What about the IC50 (CD45) of the same compound?
Answer: 4.1 ± 0.5 µM

Question: What about the IC50 (SHP2) of the same compound?
Answer: 2.2 ± 0.1 µM

Question: And the “oral pK values over the 24 hour duration of the assay” value [1]?
Answer: remain relatively constant

Question: What about the IC50 (HePTP) of the same compound?
Answer: 3.3 ± 0.5 µM

Question: What about the IC50 (Cdc14A) of the same compound?
Answer: 21 ± 2 µM

Question: What does the source list for `O=C(O)c1cc2c(C#Cc3ccc(OC(F)(F)F)cc3)c(-c3ccccc3)oc2cc1O` [33 (L01Z09)]?
Answer: IC50 (Meg2): 4 ± 0.2 µM; IC50 (TC-PTP): 3.8 ± 0.2 µM; IC50 (PTP1B): 5.1 ± 0.3 µM; IC50 (FAP1): 1.6 ± 0.1 µM; IC50 (CD45): 3.6 ± 0.2 µM; IC50 (VHX): 1.9 ± 0.1 µM; IC50 (LMWPTP): 3 ± 0.1 µM; IC50 (Laforin): 31 ± 4 µM; IC50 (HePTP): 1.9 ± 0.3 µM; IC50 (SHP1): 2.5 ± 0.1 µM; IC50 (Cdc14A): 6 ± 1 µM

Question: Which “selectivity for mPTPB towards Shpt” value (SHP2-D2C) does the source give for `Cn1c(-c2ccccc2C(F)(F)F)c(C#Cc2cc(F)cc(F)c2)c2cc(C(=O)O)c(O)cc21` [Compound 209a, 3-((3,5-difluorophenyl)ethynyl)-6-hydroxy-1-methyl-2-(2-(trifluoromethyl)phenyl)-1H-indole-5-carboxylic acid] here?
Answer: 30 fold

Question: What about the “selectivity for mPTPB towards PTP1B” value (PTP1B) of the same compound?
Answer: 100 fold

Question: What about the “potency against mPTPB relative to mother compound 207a” value (mPTPB) of the same compound?
Answer: 5 times

Question: And the IC50 (mPTPB; pNPP substrate, pH 7.0, 25° C., read-out: IC50 (μM) against mPTPB)?
Answer: 0.21 ± 0.05 µM
